In one data set the target is p38 MAPK alpha (MAPK14) (Homo sapiens (Human), UniProt Q16539). In words: Enzyme inhibition assay (FRET, Z-LYTE), p38 MAPK alpha via MAPKAP-K2 activation. In kind it is biochemical. Particulars: read-out: Enzyme Profile: IC50 Values p38α. The procedure, abridged:
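Recombinant p38 MAPKα was preincubated with compound 2 hr at RT. Its activity was measured indirectly through MAPKAP-K2 activation/phosphorylation, read by Z-LYTE FRET after 1 hr protease development. Phosphorylation was taken from the coumarin/fluorescein emission ratio.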

The target in another data set is p38 MAPK γ (MAPK12) (Homo sapiens (Human), UniProt P53778). In words: Enzyme inhibition assay (FRET, Z-LYTE), p38 MAPK gamma. In kind it is biochemical. The following applies: read-out: Enzyme Profile: IC50 Values p38γ. The procedure, abridged: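 Recombinant phosphorylated human p38γ preincubated with compound 2 hr at RT in HEPES buffer, then reacted 1 hr with 2 μM FRET peptide and 100 μM ATP. Protease development 1 hr; phosphorylation derived from coumarin/fluorescein emission ratio.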

A further data set deals with HCK enzyme (Homo sapiens (Human), UniProt P08631). The data set can be described thus: HCK enzyme inhibition assay (FRET, Z'-LYTE). In kind it is biochemical. Particulars: read-out: Enzyme Profile: IC50 Values HCK.
The next data set addresses cSrc enzyme (Homo sapiens (Human), UniProt P12931). In words: c-SRC enzyme inhibition assay (FRET, Z'-LYTE). Particulars: read-out: Enzyme Profile: IC50 Values cSrc. The class given is biochemical.
Data set [1] relates to TNFα release in THP-1 cells. In words: LPS-induced TNFα release in THP-1 cells. The class given is cell-based. Particulars: Homo sapiens; THP-1 cells, LPS 3 μg/mL, 4 hr; read-out: THP1 (LPS) TNFα IC50. Here is the method: The inhibition of TNFα production was calculated at each concentration by comparison with vehicle control.
The test system of data set [2] is TNFα release in d-U937 cells. In words: LPS-induced TNFα release in d-U937 cells. The class given is cell-based. The following applies: Homo sapiens, dU937, LPS 0.1 μg/mL, 4 hr, relative to 10 μg/mL BIRB796, read-out: d-U937 (LPS) TNFα REC50. Put shortly: (§1)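 U937 cells made macrophage-like by 48–72 h with PMA (100 ng/mL), then stimulated with LPS (E. coli O111:B4) for 4 h. Supernatant TNFα and IL-8 measured by sandwich ELISA; inhibition versus vehicle control at each concentration, REC50 from concentration-response curve.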

Data set [3] deals with IL-8 release in d-U937 cells. In words: LPS-induced IL-8 release in d-U937 cells. The following applies: Homo sapiens, dU937; d-U937 cells, LPS 0.1 μg/mL, 4 hr; read-out: d-U937 (LPS) IL-8 IC50. The class given is cell-based. Put shortly:
as §1

For data set [4], the system named is ICAM-1 expression in BEAS2B cells. The data set can be described thus: Poly I:C-induced ICAM-1 induction in BEAS2B cells. In kind it is cell-based. The following applies: Homo sapiens, BEAS-2B; BEAS2B cells, poly I:C 1 μg/mL, 18 hr; read-out: BEAS2B (polyIC) ICAM1 IC50. The procedure, abridged:
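Human bronchial epithelial BEAS2B cells pre-incubated 2 hr with test compounds at final concentrations, then transfected with poly I:C (1 μg/mL) using Oligofectamine. Cell-surface ICAM-1 quantified by cell-based ELISA with HRP-conjugated anti-rabbit IgG secondary.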

A further data set deals with HRV16. The data set can be described thus: Rhinovirus-titre assay. In kind it is cell-based, human rhinovirus. Particulars: Human rhinovirus sp., HRV16; cell not marked b; test compounds 0.04 μg/mL per method (footnote b, 0.2 μg/mL); read-out: HRV titre (inhibitory %): % inhibition observed vs. HRV16 infection control.
The test system of data set [5] is Differentiated U937 cells. The data set can be described thus: MTT assay: cell viability. The class given is cell-based, human. Particulars: 1 μg/ml; for d-U937 MTT Assay 4 h: 5% FCS; for d-U937 MTT Assay 24 h: 10% FCS. The procedure, abridged: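 Differentiated U937 cells pre-incubated with compound either 4 hr in 5% FCS or 24 h in 10% FCS, then 1 hr MTT. Formazan dissolved in DMSO, absorbance at 550 nm. Percentage viability loss relative to 0.5% DMSO vehicle; apparent increases appear as negative percentages.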

The text below walks through data of patent publication US8933228B2, “Respiratory formulations and compounds for use therein” (Respivert, Ltd., priority 2010, dated 2015).

A value given as a limit tells only on which side of the number the result lay.

With `Cc1ccc(-n2nc(C3(C)CC3)cc2NC(=O)Nc2ccc(Oc3ccnc4[nH]c(=O)cnc34)c3ccccc23)cc1` [Example 29], the IC50 on p38 MAPK alpha (MAPK14) came to 5 nM; on p38 MAPK γ (MAPK12) it was 19 nM; on HCK enzyme it was 4 nM; on cSrc enzyme it was 10 nM; in data set [1] it was 17 nM; in data set [3], 6.7 nM. Moreover, in [4], the IC50 turned out to be 13 nM. Also, the EC50 in [2] was 5.6 nM. In addition, the inhibition at 0.04 µg/mL in the data set with HRV16 amounted to 60%. In addition, in [5], the “d-U937 MTT Assay 4 h” value is “− (− and + indicate the result is below and above the no significant effect threshold, respectively (<30% inhibition at a concentration of 1 μg/ml))”. For the same compound, in [5], the “d-U937 MTT Assay 24 h” value is “− (− and + indicate the result is below and above the no significant effect threshold, respectively (<30% inhibition at a concentration of 1 μg/ml))”.
`Cc1ccc(-n2nc(C(C)(C)C)cc2NC(=O)Nc2ccc(Oc3ncnc4[nH]c(=O)[nH]c34)c3ccccc23)cc1` [Example 15, 1-(3-(tert-Butyl)-1-(p-tolyl)-1H-pyrazol-5-yl)-3-(4-((8-oxo-8,9-dihydro-7H-purin-6-yl)oxy)naphthalen-1-yl)urea]: the IC50 on p38 MAPK alpha (MAPK14) turned out to be 30 nM; on p38 MAPK γ (MAPK12) it was 539 nM; on HCK enzyme it was 36 nM; at cSrc enzyme, 35 nM; in data set [1], 126 nM; in data set [3], 164 nM. The IC50 in data set [4] was greater than 182 nM. Besides, the EC50 in [2] was found to be 33 nM. Besides, the inhibition at 0.04 µg/mL in the data set with HRV16 was 8%. Moreover, in data set [5], the “d-U937 MTT Assay 4 h” value is “− (− and + indicate the result is below and above the no significant effect threshold, respectively (<30% inhibition at a concentration of 1 μg/ml))”. Further, the “d-U937 MTT Assay 24 h” value in data set [5] is “− (− and + indicate the result is below and above the no significant effect threshold, respectively (<30% inhibition at a concentration of 1 μg/ml))”.
On to `COc1ccc(-n2nc(C(C)(C)C)cc2NC(=O)Nc2ccc(Oc3ccnc4[nH]c(=O)n(C)c34)c3ccccc23)cn1` [Example 24, 1-(3-(tert-butyl)-1-(6-methoxypyridin-3-yl)-1H-pyrazol-5-yl)-3-(4-((1-methyl-2-oxo-2,3-dihydro-1H-imidazo[4,5-b]pyridin-7-yl)oxy)naphthalen-1-yl)urea], for which the IC50 was 7 nM on p38 MAPK alpha (MAPK14); 126 nM on p38 MAPK γ (MAPK12); 5 nM at HCK enzyme; 16 nM on cSrc enzyme; 4.4 nM in data set [1]; 11 nM in data set [3]. The IC50 in [4] came to 12 nM. Also, the EC50 in [2] came to 1.3 nM. In the data set with HRV16, the inhibition at 0.04 µg/mL came to 91%. In addition, in [5], the “d-U937 MTT Assay 4 h” value was “− (− and + indicate the result is below and above the no significant effect threshold, respectively (<30% inhibition at a concentration of 1 μg/ml))”. In data set [5], the “d-U937 MTT Assay 24 h” value was “− (− and + indicate the result is below and above the no significant effect threshold, respectively (<30% inhibition at a concentration of 1 μg/ml))”.
In the case of `Cc1ccc(-n2nc(C3CC3)cc2NC(=O)Nc2ccc(Oc3ccnc4[nH]c(=O)cnc34)c3ccccc23)cc1` [Example 28, 1-(3-cyclopropyl-1-(p-tolyl)-1H-pyrazol-5-yl)-3-(4-((3-oxo-3,4-dihydropyrido[2,3-b]pyrazin-8-yl)oxy)naphthalen-1-yl)urea], the 50% inhibitory concentration (IC50) was 2 nM on p38 MAPK alpha (MAPK14); greater than 18000 nM on p38 MAPK γ (MAPK12); 9 nM on HCK enzyme; 22 nM at cSrc enzyme; 161 nM in [1]; 71 nM in data set [3]. The 50% inhibitory concentration (IC50) in [4] was greater than 184 nM. In addition, the EC50 in data set [2] amounted to 40 nM. Also, the inhibition at 0.04 µg/mL with HRV16 was 36%. Besides, the “d-U937 MTT Assay 4 h” value in data set [5] was “− (− and + indicate the result is below and above the no significant effect threshold, respectively (<30% inhibition at a concentration of 1 μg/ml))”. Besides, in data set [5], the “d-U937 MTT Assay 24 h” value was “− (− and + indicate the result is below and above the no significant effect threshold, respectively (<30% inhibition at a concentration of 1 μg/ml))”.
